Test results published in PubChem BioAssay (NCI).
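Interpolation was linear, between the two tested concentrations surrounding the appropriate level; five concentrations were tested over 48 hours in 96-well plates. GI50 is the concentration that inhibits growth by half. TGI marks complete inhibition of growth.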

Tests used:
Assay in all cases: growth of human tumour cells (NCI), 48 h
OVCAR-3 ovarian = system: OVCAR-3 ovarian
SN12C renal = system: SN12C renal
HT29 colon = system: HT29 colon
SNB-75 CNS = system: SNB-75 CNS
DU-145 prostate = system: DU-145 prostate
HCT-15 colon = system: HCT-15 colon
OVCAR-5 ovarian = system: OVCAR-5 ovarian
T-47D breast = system: T-47D breast
786-0 renal = system: 786-0 renal
OVCAR-8 ovarian = system: OVCAR-8 ovarian
SK-MEL-5 melanoma = system: SK-MEL-5 melanoma
SF-539 CNS = system: SF-539 CNS
A549 NSCLC = system: A549 NSCLC
NCI-H460 lung = system: NCI-H460 lung
CAKI-1 renal = system: CAKI-1 renal
SW-620 colon = system: SW-620 colon
PC-3 prostate = system: PC-3 prostate
NCI-H23 lung = system: NCI-H23 lung
U251 CNS = system: U251 CNS
SK-OV-3 ovarian = system: SK-OV-3 ovarian
MDA-MB-435 = system: MDA-MB-435
RPMI-8226 leukemia = system: RPMI-8226 leukemia
MDA-MB-231 breast = system: MDA-MB-231 breast
RXF 393 renal = system: RXF 393 renal
EKVX NSCLC = system: EKVX NSCLC
BT-549 breast = system: BT-549 breast
IGROV1 ovarian = system: IGROV1 ovarian
SNB-19 CNS = system: SNB-19 CNS
KM12 colon = system: KM12 colon
COLO 205 colon = system: COLO 205 colon
ACHN renal = system: ACHN renal
SK-MEL-28 melanoma = system: SK-MEL-28 melanoma
MALME-3M melanoma = system: MALME-3M melanoma
SF-295 CNS = system: SF-295 CNS
HOP-62 NSCLC = system: HOP-62 NSCLC
HL-60(TB) leukemia = system: HL-60(TB) leukemia
NCI-H522 lung = system: NCI-H522 lung
SK-MEL-2 melanoma = system: SK-MEL-2 melanoma
UO-31 renal = system: UO-31 renal
UACC-257 melanoma = system: UACC-257 melanoma
SF-268 CNS = system: SF-268 CNS
LOX IMVI melanoma = system: LOX IMVI melanoma
OVCAR-4 ovarian = system: OVCAR-4 ovarian
HCC-2998 colon = system: HCC-2998 colon
HS 578T breast = system: HS 578T breast
HOP-92 NSCLC = system: HOP-92 NSCLC
HCT-116 colon = system: HCT-116 colon
UACC-62 melanoma = system: UACC-62 melanoma
A498 renal = system: A498 renal
NCI-H226 lung = system: NCI-H226 lung
TK-10 renal = system: TK-10 renal
MCF7 breast = system: MCF7 breast

CCOC(=O)c1c(NC(=O)c2ccc(C(F)(F)F)cc2)sc2c3c(ccc12)OCN(C)C3
GI50 (OVCAR-3 ovarian): 1.79 µM
TGI (OVCAR-3 ovarian): 3.33 µM
GI50 (SN12C renal): 1.79 µM
TGI (SN12C renal): 3.43 µM
GI50 (HT29 colon): 1.75 µM
TGI (HT29 colon): 3.34 µM
GI50 (SNB-75 CNS): 1.49 µM
TGI (SNB-75 CNS): 3.34 µM
GI50 (DU-145 prostate): 1.81 µM
TGI (DU-145 prostate): 3.41 µM
GI50 (HCT-15 colon): 1.74 µM
TGI (HCT-15 colon): 3.28 µM
GI50 (OVCAR-5 ovarian): 1.8 µM
TGI (OVCAR-5 ovarian): 3.4 µM
GI50 (T-47D breast): 1.84 µM
TGI (T-47D breast): 3.96 µM
GI50 (786-0 renal): 2.22 µM
TGI (786-0 renal): 4.92 µM
GI50 (OVCAR-8 ovarian): 1.86 µM
TGI (OVCAR-8 ovarian): 3.76 µM
GI50 (SK-MEL-5 melanoma): 1.81 µM
TGI (SK-MEL-5 melanoma): 3.45 µM
GI50 (SF-539 CNS): 1.75 µM
TGI (SF-539 CNS): 3.3 µM
GI50 (A549 NSCLC): 1.79 µM
TGI (A549 NSCLC): 3.61 µM
GI50 (NCI-H460 lung): 1.89 µM
TGI (NCI-H460 lung): 3.55 µM
GI50 (CAKI-1 renal): 1.67 µM
TGI (CAKI-1 renal): 3.2 µM
GI50 (SW-620 colon): 1.78 µM
TGI (SW-620 colon): 3.42 µM
GI50 (PC-3 prostate): 1.53 µM
TGI (PC-3 prostate): 3.15 µM
GI50 (NCI-H23 lung): 1.81 µM
TGI (NCI-H23 lung): 3.5 µM
GI50 (U251 CNS): 1.71 µM
TGI (U251 CNS): 3.34 µM
GI50 (SK-OV-3 ovarian): 1.95 µM
TGI (SK-OV-3 ovarian): 3.77 µM
GI50 (MDA-MB-435): 1.65 µM
TGI (MDA-MB-435): 3.16 µM
GI50 (RPMI-8226 leukemia): 1.33 µM
TGI (RPMI-8226 leukemia): 3.86 µM
GI50 (MDA-MB-231 breast): 1.86 µM
TGI (MDA-MB-231 breast): 3.7 µM
GI50 (RXF 393 renal): 1.56 µM
TGI (RXF 393 renal): 2.97 µM
GI50 (EKVX NSCLC): 1.69 µM
TGI (EKVX NSCLC): 3.36 µM
GI50 (BT-549 breast): > 100 µM
TGI (BT-549 breast): > 100 µM
GI50 (IGROV1 ovarian): 1.81 µM
TGI (IGROV1 ovarian): 3.52 µM
GI50 (SNB-19 CNS): 1.78 µM
TGI (SNB-19 CNS): 3.52 µM
GI50 (KM12 colon): 2.01 µM
TGI (KM12 colon): 3.77 µM
GI50 (COLO 205 colon): 1.78 µM
TGI (COLO 205 colon): 3.5 µM
GI50 (ACHN renal): 1.8 µM
TGI (ACHN renal): 3.24 µM
GI50 (SK-MEL-28 melanoma): 1.8 µM
TGI (SK-MEL-28 melanoma): 3.28 µM
GI50 (MALME-3M melanoma): 1.83 µM
TGI (MALME-3M melanoma): 3.51 µM
GI50 (SF-295 CNS): 1.79 µM
TGI (SF-295 CNS): 3.32 µM
GI50 (HOP-62 NSCLC): 2 µM
TGI (HOP-62 NSCLC): 4.32 µM
GI50 (HL-60(TB) leukemia): 1.69 µM
TGI (HL-60(TB) leukemia): 4.74 µM
GI50 (NCI-H522 lung): 1.72 µM
TGI (NCI-H522 lung): 3.35 µM
GI50 (SK-MEL-2 melanoma): 1.8 µM
TGI (SK-MEL-2 melanoma): 3.44 µM
GI50 (UO-31 renal): 1.55 µM
TGI (UO-31 renal): 2.95 µM
GI50 (UACC-257 melanoma): 1.62 µM
TGI (UACC-257 melanoma): 3.27 µM
GI50 (SF-268 CNS): 1.83 µM
TGI (SF-268 CNS): 3.66 µM
GI50 (LOX IMVI melanoma): 1.65 µM
TGI (LOX IMVI melanoma): 3.21 µM
GI50 (OVCAR-4 ovarian): 1.76 µM
TGI (OVCAR-4 ovarian): 3.46 µM
GI50 (HCC-2998 colon): 1.67 µM
TGI (HCC-2998 colon): 3.15 µM
GI50 (HS 578T breast): 1.84 µM
TGI (HS 578T breast): 3.97 µM
GI50 (HOP-92 NSCLC): 1.14 µM
TGI (HOP-92 NSCLC): 2.68 µM
GI50 (HCT-116 colon): 1.74 µM
TGI (HCT-116 colon): 3.34 µM
GI50 (UACC-62 melanoma): 1.72 µM
TGI (UACC-62 melanoma): 3.28 µM
GI50 (A498 renal): 1.67 µM
TGI (A498 renal): 3.21 µM
GI50 (NCI-H226 lung): 1.79 µM
TGI (NCI-H226 lung): 3.6 µM
GI50 (TK-10 renal): 1.68 µM
TGI (TK-10 renal): 3.13 µM
GI50 (MCF7 breast): 1.62 µM
TGI (MCF7 breast): 3.08 µM
